“And” between values parts separate entries of the source, which are not always exact repeats. Identical values can stand only once. Inconclusive results and toxic doses are left out.
System: P388 leukemia ip, CD2F1 mice, survival T/C
Assay: NCI In Vivo Anticancer Drug Screen. Data for tumor model P388 Leukemia (intraperitoneal) in CD2F1 (CDF1) mice
Conditions: endpoint: median survival time, higher = longer survival
Procedure, shortened: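 Mice carrying the transplanted tumor received test compound or vehicle. Survival was recorded in each group, and the value is the treated-group measurement divided by that of the vehicle-treated control group.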

[1] = dose: 50.0 mg/kg/injection, schedule: Q01DX009 (ip), vehicle: saline
[2] = dose: 100.0 mg/kg/injection, schedule: Q01DX009 (ip), vehicle: Klucel (hydroxypropylcellulose) (HPC)
[3] = dose: 200.0 mg/kg/injection, schedule: Q01DX009 (ip), vehicle: Klucel (hydroxypropylcellulose) (HPC)
[4] = dose: 200.0 mg/kg/injection, schedule: Q01DX009 (ip), vehicle: saline
[5] = dose: 50.0 mg/kg/injection, schedule: Q01DX009 (ip), vehicle: saline with Tween-80
[6] = dose: 100.0 mg/kg/injection, schedule: Q01DX009 (ip), vehicle: saline with Tween-80
[7] = dose: 60.0 mg/kg/injection, schedule: Q01DX005 (ip), vehicle: saline with Tween-80
[8] = dose: 100.0 mg/kg/injection, schedule: Q04DX003 (ip), vehicle: saline with Tween-80
[9] = dose: 200.0 mg/kg/injection, schedule: Q04DX003 (ip), vehicle: saline with Tween-80
[10] = dose: 400.0 mg/kg/injection, schedule: Q04DX003 (ip), vehicle: saline with Tween-80
[11] = dose: 50.0 mg/kg/injection, schedule: Q01DX005 (ip), vehicle: saline with Tween-80
[12] = dose: 100.0 mg/kg/injection, schedule: Q01DX005 (ip), vehicle: saline with Tween-80
[13] = dose: 200.0 mg/kg/injection, schedule: Q01DX005 (ip), vehicle: saline with Tween-80
[14] = dose: 50.0 mg/kg/injection, schedule: Q01DX009 (ip), vehicle: Klucel (hydroxypropylcellulose) (HPC)
[15] = dose: 100.0 mg/kg/injection, schedule: Q01DX009 (ip), vehicle: saline
[16] = dose: 200.0 mg/kg/injection, schedule: Q01DX009 (ip), vehicle: saline with Tween-80

## Cc1oc(NCc2ccccc2)c(C#N)c1C
dose: 50.0 mg/kg/injection, schedule: Q01DX009 (ip), vehicle: saline + alcohol
  T/C: 105 % of control
dose: 100.0 mg/kg/injection, schedule: Q01DX009 (ip), vehicle: saline + alcohol
  T/C: 90 % of control
dose: 200.0 mg/kg/injection, schedule: Q01DX009 (ip), vehicle: saline + alcohol
  T/C: 91 % of control

## CC(=O)Oc1cc2c(=O)oc3c(OC(C)=O)c(OC(C)=O)c(OC(C)=O)c4c(=O)oc(c1OC(C)=O)c2c34
dose: 25.0 mg/kg/injection, schedule: Q01DX009 (ip), vehicle: saline
  T/C: 101 % of control
[1]
  T/C: 86 % of control
[2]
  T/C: 86 % of control
[3]
  T/C: 86 % of control
[4]
  T/C: 88 % of control
dose: 400.0 mg/kg/injection, schedule: Q01DX009 (ip), vehicle: saline
  T/C: 94 % of control

## CCOC(=O)Oc1ccc(/C=N/NC(N)=S)nc1
[5]
  T/C: 163 % of control
[6]
  T/C: 93 % of control

## CC(C)=CCCc1ccc2c(c1)C(=O)c1cc3c(cc1C2=O)OCO3
dose: 3.75 mg/kg/injection, schedule: Q01DX005 (ip), vehicle: saline with Tween-80
  T/C: 101 % of control
dose: 7.5 mg/kg/injection, schedule: Q01DX005 (ip), vehicle: saline with Tween-80
  T/C: 91 % of control
dose: 15.0 mg/kg/injection, schedule: Q01DX005 (ip), vehicle: saline with Tween-80
  T/C: 98 % of control and 104 % of control
[7]
  T/C: 87 % of control

## CCOC(=O)NOP(=O)(N1CC1(C)C)N1CC1(C)C (configuration not stated)
dose: 62.5 mg/kg/injection, schedule: Q01DX001 (ip), vehicle: saline + alcohol
  T/C: 107 % of control
dose: 125.0 mg/kg/injection, schedule: Q01DX001 (ip), vehicle: saline + alcohol
  T/C: 117 % of control
dose: 250.0 mg/kg/injection, schedule: Q01DX001 (ip), vehicle: other
  T/C: 150 % of control
dose: 250.0 mg/kg/injection, schedule: Q01DX001 (ip), vehicle: saline + alcohol
  T/C: 120 % of control
dose: 500.0 mg/kg/injection, schedule: Q01DX001 (ip), vehicle: other
  T/C: 163 % of control
dose: 500.0 mg/kg/injection, schedule: Q01DX001 (ip), vehicle: saline + alcohol
  T/C: 150 % of control

## COc1ccc(/C=C/C(=N/NC(=O)c2ccccc2)C(C)CN(C)C)cc1 (configuration not stated)
dose: 60.0 mg/kg/injection, schedule: Q01DX005 (ip), vehicle: Klucel (hydroxypropylcellulose) (HPC)
  T/C: 104 % of control
dose: 120.0 mg/kg/injection, schedule: Q01DX005 (ip), vehicle: Klucel (hydroxypropylcellulose) (HPC)
  T/C: 111 % of control

## O=S1(=O)CC2(N3CCOCC3)CCCCC21 (configuration not stated)
[8]
  T/C: 95 % of control
[9]
  T/C: 100 % of control
[10]
  T/C: 95 % of control

## O=C(Nc1ccc(C2=NCCN2)c(O)c1)c1ccc(C(=O)Nc2ccc(C3=NCCN3)c(O)c2)cc1
[11]
  T/C: 99 % of control
[12]
  T/C: 103 % of control
[13]
  T/C: 107 % of control

## CC(=O)c1ccc(-c2ccccc2)cc1
[8]
  T/C: 91 % of control
[9]
  T/C: 91 % of control
[10]
  T/C: 95 % of control

## CCOC(=O)Cn1c(O)c(C2=c3cc(Br)ccc3=NC2=O)sc1=O
dose: 100.0 mg/kg/injection, schedule: Q01DX001 (ip), vehicle: Klucel (hydroxypropylcellulose) (HPC)
  T/C: 95 % of control
dose: 200.0 mg/kg/injection, schedule: Q01DX001 (ip), vehicle: Klucel (hydroxypropylcellulose) (HPC)
  T/C: 98 % of control
dose: 400.0 mg/kg/injection, schedule: Q01DX001 (ip), vehicle: Klucel (hydroxypropylcellulose) (HPC)
  T/C: 99 % of control

## CCCCCCCC(=O)C(=O)c1ccc(O)c(C)c1O
[14]
  T/C: 109 % of control
[2]
  T/C: 102 % of control
[3]
  T/C: 106 % of control

## C=C(C)C12OC3(c4ccccc4)OC1C1C4OC4(CO)C(O)C4(O)C(=O)C(C)=CC4C1(O3)C(C)C2OC(=O)c1ccccc1 (configuration not stated)
dose: 0.1 mg/kg/injection, schedule: Q01DX009 (ip), vehicle: saline
  T/C: 91 % of control
dose: 0.2 mg/kg/injection, schedule: Q01DX009 (ip), vehicle: saline
  T/C: 100 % of control
dose: 0.4 mg/kg/injection, schedule: Q01DX009 (ip), vehicle: saline
  T/C: 90 % of control
dose: 0.8 mg/kg/injection, schedule: Q01DX009 (ip), vehicle: saline
  T/C: 96 % of control

## CCOC(=O)C1C(c2cccc(OC)c2O)c2cc3c(cc2OC1(C)N1CCCC1)OCO3 (configuration not stated)
[7]
  T/C: 99 % of control
dose: 120.0 mg/kg/injection, schedule: Q01DX005 (ip), vehicle: saline with Tween-80
  T/C: 92 % of control
dose: 240.0 mg/kg/injection, schedule: Q01DX005 (ip), vehicle: saline with Tween-80
  T/C: 89 % of control

## Cn1c2ccccc2c(=O)c2cc(NC(=O)/C=C/C(=O)Nc3ccc4c(c3)c(=O)c3ccccc3n4C)ccc21
[11]
  T/C: 102 % of control
[12]
  T/C: 105 % of control
[13]
  T/C: 106 % of control

## Cc1cc(N/N=C/c2ccccn2)nc2c(C)cccc12
[11]
  T/C: 90 % of control
[12]
  T/C: 91 % of control
[13]
  T/C: 100 % of control

## CCc1nc(N)nc(N)c1-c1ccc(NCCN)c(N)c1
dose: 12.5 mg/kg/injection, schedule: Q01DX005 (ip), vehicle: Klucel (hydroxypropylcellulose) (HPC)
  T/C: 104 % of control
dose: 25.0 mg/kg/injection, schedule: Q01DX005 (ip), vehicle: Klucel (hydroxypropylcellulose) (HPC)
  T/C: 101 % of control
dose: 50.0 mg/kg/injection, schedule: Q01DX005 (ip), vehicle: Klucel (hydroxypropylcellulose) (HPC)
  T/C: 103 % of control and 107 % of control

## O=C(O)CC(CSCP(=O)(O)O)C(=O)O (configuration not stated)
dose: 50.0 mg/kg/injection, schedule: Q01DX005 (ip), vehicle: suspension in saline
  T/C: 102 % of control
dose: 100.0 mg/kg/injection, schedule: Q01DX005 (ip), vehicle: suspension in saline
  T/C: 91 % of control
dose: 200.0 mg/kg/injection, schedule: Q01DX005 (ip), vehicle: suspension in saline
  T/C: 89 % of control

## CCOC(=O)NP1(=O)NCc2ccccc2CN1
[11]
  T/C: 103 % of control
[12]
  T/C: 99 % of control
[13]
  T/C: 90 % of control

## O=[N+]([O-])c1ccc(SC(=S)N(c2ccccc2)c2ccccc2)c([N+](=O)[O-])c1
dose: 6.25 mg/kg/injection, schedule: Q01DX009 (ip), vehicle: Klucel (hydroxypropylcellulose) (HPC)
  T/C: 104 % of control
dose: 12.5 mg/kg/injection, schedule: Q01DX009 (ip), vehicle: Klucel (hydroxypropylcellulose) (HPC)
  T/C: 102 % of control
dose: 25.0 mg/kg/injection, schedule: Q01DX009 (ip), vehicle: Klucel (hydroxypropylcellulose) (HPC)
  T/C: 102 % of control
[14]
  T/C: 102 % of control

## CC(=O)Oc1ccc(N=Cc2cc3c(cc2[N+](=O)[O-])OCO3)cc1
dose: 12.5 mg/kg/injection, schedule: Q01DX009 (ip), vehicle: other
  T/C: 113 % of control
dose: 25.0 mg/kg/injection, schedule: Q01DX009 (ip), vehicle: other
  T/C: 117 % of control
dose: 50.0 mg/kg/injection, schedule: Q01DX009 (ip), vehicle: other
  T/C: 109 % of control
dose: 100.0 mg/kg/injection, schedule: Q01DX009 (ip), vehicle: other
  T/C: 93 % of control
dose: 200.0 mg/kg/injection, schedule: Q01DX009 (ip), vehicle: other
  T/C: 92 % of control
dose: 400.0 mg/kg/injection, schedule: Q01DX009 (ip), vehicle: other
  T/C: 96 % of control

## Cc1ccc(S(=O)(=O)O/N=C(/C#N)c2ccccc2)cc1
[1]
  T/C: 101 % of control
[6]
  T/C: 102 % of control
[15]
  T/C: 99 % of control
[16]
  T/C: 101 % of control
[4]
  T/C: 105 % of control
dose: 400.0 mg/kg/injection, schedule: Q01DX009 (ip), vehicle: saline with Tween-80
  T/C: 97 % of control

## O=C(O)CCCCC1SCC2NC(=O)NC21 (configuration not stated)
[5]
  T/C: 100 % of control
[6]
  T/C: 108 % of control
[16]
  T/C: 108 % of control

## Sc1ccccc1N=Cc1ccc(C=Nc2ccccc2S)cc1
[1]
  T/C: 98 % of control
[15]
  T/C: 99 % of control
[4]
  T/C: 97 % of control

## C/C(=C/c1ccccc1)C(=O)C1C(c2ccccc2)CC(O)C(C)C1c1ccccc1 (configuration not stated)
dose: 100.0 mg/kg/injection, schedule: Q04DX003 (ip), vehicle: Klucel (hydroxypropylcellulose) (HPC)
  T/C: 93 % of control
dose: 200.0 mg/kg/injection, schedule: Q04DX003 (ip), vehicle: Klucel (hydroxypropylcellulose) (HPC)
  T/C: 88 % of control

## O=S(=O)(Cl)C(Cl)(Cl)Cl
dose: 25.0 mg/kg/injection, schedule: Q01DX009 (ip), vehicle: saline sonified
  T/C: 95 % of control
dose: 50.0 mg/kg/injection, schedule: Q01DX009 (ip), vehicle: saline sonified
  T/C: 100 % of control
dose: 100.0 mg/kg/injection, schedule: Q01DX009 (ip), vehicle: saline sonified
  T/C: 86 % of control

— PubChem BioAssay AID330 (DTP/NCI, 2004)
